According to PubChem BioAssay (NCI):
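GI50 = concentration required for 50% inhibition of growth. TGI marks complete inhibition of growth.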

Columns and labels:
Test in all cases: inhibition of tumour cell growth, NCI panel, 384-well format
OVCAR-8 ovarian = tested on: OVCAR-8 ovarian
MDA-MB-468 breast = tested on: MDA-MB-468 breast
SK-MEL-28 melanoma = tested on: SK-MEL-28 melanoma
BT-549 breast = tested on: BT-549 breast
TK-10 renal = tested on: TK-10 renal
NCI-H23 lung = tested on: NCI-H23 lung
786-0 renal = tested on: 786-0 renal
NCI-H322M lung = tested on: NCI-H322M lung
T-47D breast = tested on: T-47D breast
UACC-62 melanoma = tested on: UACC-62 melanoma
K-562 leukemia = tested on: K-562 leukemia
CCRF-CEM leukemia = tested on: CCRF-CEM leukemia
SK-MEL-5 melanoma = tested on: SK-MEL-5 melanoma
NCI-H226 lung = tested on: NCI-H226 lung
IGROV1 ovarian = tested on: IGROV1 ovarian
NCI/ADR-RES ovarian = tested on: NCI/ADR-RES ovarian
SNB-19 CNS = tested on: SNB-19 CNS
UO-31 renal = tested on: UO-31 renal
NCI-H522 lung = tested on: NCI-H522 lung
RXF 393 renal = tested on: RXF 393 renal
SN12C renal = tested on: SN12C renal
DU-145 prostate = tested on: DU-145 prostate
A549 NSCLC = tested on: A549 NSCLC
HS 578T breast = tested on: HS 578T breast
A498 renal = tested on: A498 renal
LOX IMVI melanoma = tested on: LOX IMVI melanoma
SF-268 CNS = tested on: SF-268 CNS
SF-295 CNS = tested on: SF-295 CNS
PC-3 prostate = tested on: PC-3 prostate
HT29 colon = tested on: HT29 colon
COLO 205 colon = tested on: COLO 205 colon
SNB-75 CNS = tested on: SNB-75 CNS
EKVX NSCLC = tested on: EKVX NSCLC
HL-60(TB) leukemia = tested on: HL-60(TB) leukemia
MALME-3M melanoma = tested on: MALME-3M melanoma
MDA-MB-231 breast = tested on: MDA-MB-231 breast
SK-OV-3 ovarian = tested on: SK-OV-3 ovarian
HCC-2998 colon = tested on: HCC-2998 colon
MOLT-4 leukemia = tested on: MOLT-4 leukemia
ACHN renal = tested on: ACHN renal
HCT-15 colon = tested on: HCT-15 colon
SW-620 colon = tested on: SW-620 colon
U251 glioblastoma = tested on: U251 glioblastoma
M14 melanoma = tested on: M14 melanoma
OVCAR-5 ovarian = tested on: OVCAR-5 ovarian
UACC-257 melanoma = tested on: UACC-257 melanoma
SF-539 CNS = tested on: SF-539 CNS
OVCAR-4 ovarian = tested on: OVCAR-4 ovarian
MCF7 breast = tested on: MCF7 breast
HOP-62 NSCLC = tested on: HOP-62 NSCLC
HOP-92 NSCLC = tested on: HOP-92 NSCLC
RPMI-8226 leukemia = tested on: RPMI-8226 leukemia
MDA-MB-435 melanoma = tested on: MDA-MB-435 melanoma
CAKI-1 renal = tested on: CAKI-1 renal
OVCAR-3 ovarian = tested on: OVCAR-3 ovarian
KM12 colon = tested on: KM12 colon
NCI-H460 NSCLC = tested on: NCI-H460 NSCLC
SR leukemia = tested on: SR leukemia

## O=C(O)CCC1CCC(c2cc(F)ccc2F)(S(=O)(=O)c2ccc(Cl)cc2)CC1 (stereo unspecified)
OVCAR-8 ovarian
  GI50: > 100 µM
  TGI: > 100 µM
MDA-MB-468 breast
  GI50: 8.1 µM
  TGI: 80.4 µM
SK-MEL-28 melanoma
  GI50: > 100 µM
  TGI: > 100 µM
BT-549 breast
  GI50: > 100 µM
  TGI: > 100 µM
TK-10 renal
  GI50: > 100 µM
  TGI: > 100 µM
NCI-H23 lung
  GI50: > 100 µM
  TGI: > 100 µM
786-0 renal
  GI50: > 100 µM
  TGI: > 100 µM
NCI-H322M lung
  GI50: > 100 µM
  TGI: > 100 µM
T-47D breast
  GI50: 99.6 µM
  TGI: > 100 µM
UACC-62 melanoma
  GI50: > 100 µM
  TGI: > 100 µM
K-562 leukemia
  GI50: > 100 µM
  TGI: > 100 µM
CCRF-CEM leukemia
  GI50: 75.8 µM
  TGI: > 100 µM
SK-MEL-5 melanoma
  GI50: > 100 µM
  TGI: > 100 µM
NCI-H226 lung
  GI50: > 100 µM
  TGI: > 100 µM
IGROV1 ovarian
  GI50: > 100 µM
  TGI: > 100 µM
NCI/ADR-RES ovarian
  GI50: > 100 µM
  TGI: > 100 µM
SNB-19 CNS
  GI50: > 100 µM
  TGI: > 100 µM
UO-31 renal
  GI50: > 100 µM
  TGI: > 100 µM
NCI-H522 lung
  GI50: > 100 µM
  TGI: > 100 µM
RXF 393 renal
  GI50: > 100 µM
  TGI: > 100 µM
SN12C renal
  GI50: > 100 µM
  TGI: > 100 µM
DU-145 prostate
  GI50: > 100 µM
  TGI: > 100 µM
A549 NSCLC
  GI50: > 100 µM
  TGI: > 100 µM
HS 578T breast
  GI50: > 100 µM
  TGI: > 100 µM
A498 renal
  GI50: > 100 µM
  TGI: > 100 µM
LOX IMVI melanoma
  GI50: > 100 µM
  TGI: > 100 µM
SF-268 CNS
  GI50: > 100 µM
  TGI: > 100 µM
SF-295 CNS
  GI50: > 100 µM
  TGI: > 100 µM
PC-3 prostate
  GI50: > 100 µM
  TGI: > 100 µM
HT29 colon
  GI50: > 100 µM
  TGI: > 100 µM
COLO 205 colon
  GI50: > 100 µM
  TGI: > 100 µM
SNB-75 CNS
  GI50: > 100 µM
  TGI: > 100 µM
EKVX NSCLC
  GI50: > 100 µM
  TGI: > 100 µM
HL-60(TB) leukemia
  GI50: > 100 µM
  TGI: > 100 µM
MALME-3M melanoma
  GI50: 62 µM
  TGI: > 100 µM
MDA-MB-231 breast
  GI50: > 100 µM
  TGI: > 100 µM
SK-OV-3 ovarian
  GI50: > 100 µM
  TGI: > 100 µM
HCC-2998 colon
  GI50: > 100 µM
  TGI: > 100 µM
MOLT-4 leukemia
  GI50: 65 µM
  TGI: > 100 µM
ACHN renal
  GI50: > 100 µM
  TGI: > 100 µM
HCT-15 colon
  GI50: > 100 µM
  TGI: > 100 µM
SW-620 colon
  GI50: > 100 µM
  TGI: > 100 µM
U251 glioblastoma
  GI50: > 100 µM
  TGI: > 100 µM
M14 melanoma
  GI50: > 100 µM
  TGI: > 100 µM
OVCAR-5 ovarian
  GI50: > 100 µM
  TGI: > 100 µM
UACC-257 melanoma
  GI50: > 100 µM
  TGI: > 100 µM
SF-539 CNS
  GI50: > 100 µM
  TGI: > 100 µM
OVCAR-4 ovarian
  GI50: 78.8 µM
  TGI: > 100 µM
MCF7 breast
  GI50: > 100 µM
  TGI: > 100 µM
HOP-62 NSCLC
  GI50: > 100 µM
  TGI: > 100 µM
HOP-92 NSCLC
  GI50: > 100 µM
  TGI: > 100 µM
RPMI-8226 leukemia
  GI50: > 100 µM
  TGI: > 100 µM
MDA-MB-435 melanoma
  GI50: 71.9 µM
  TGI: > 100 µM
CAKI-1 renal
  GI50: > 100 µM
  TGI: > 100 µM
OVCAR-3 ovarian
  GI50: > 100 µM
  TGI: > 100 µM
KM12 colon
  GI50: > 100 µM
  TGI: > 100 µM
NCI-H460 NSCLC
  GI50: > 100 µM
  TGI: > 100 µM
SR leukemia
  GI50: 24.8 µM
  TGI: > 100 µM
